{"source": "paper PMC10238420", "about": "“Altered Signaling and Desensitization Responses in PTH1R Mutants Associated with Eiken Syndrome” (Communications Biology, 2023)", "key": {"PTH1R-E35K [1]": {"molecular_target": "T1, PTH1R-E35K (Homo sapiens, UniProt Q03431, E35K)", "experiment": "Glosensor cAMP agonist dose-response, Gs22a cells", "type": "cell-based", "settings": "% of maximum response of each ligand on PTH1R-WT; five experiments"}, "PTH1R-WT [2]": {"molecular_target": "T2, PTH1R-WT (Homo sapiens, UniProt Q03431)", "experiment": "Glosensor cAMP agonist dose-response, Gs22a cells", "type": "cell-based", "settings": "% of maximum response of each ligand on PTH1R-WT; five experiments"}, "PTH1R-H223R [3]": {"molecular_target": "T3, PTH1R-H223R (Homo sapiens, UniProt Q03431, H223R)", "experiment": "Glosensor cAMP agonist dose-response, Gs22a cells", "type": "cell-based", "settings": "% of maximum response of each ligand on PTH1R-WT; five experiments"}, "PTH1R-Y134S [4]": {"molecular_target": "T4, PTH1R-Y134S (Homo sapiens, UniProt Q03431, Y134S)", "experiment": "Glosensor cAMP agonist dose-response, Gs22a cells", "type": "cell-based", "settings": "% of maximum response of each ligand on PTH1R-WT; five experiments"}, "PTH1R-R485X [5]": {"molecular_target": "T5, PTH1R-R485X (Homo sapiens, UniProt Q03431)", "experiment": "cell-based"}, "PTH1R-R485X [6]": {"test_system": "PTH1R-R485X", "settings": "1 nM; vs vehicle-pre-treated cells", "experimental": "(§8) Fig. 7 Effects of Eiken mutation on duration of cAMP signaling and desensitization to ligand re-challenge. a Assays were performed in Gs22a cells transiently transfected to express PTH1R-WT or a mutant PTH1R. a Duration of initial cAMP signaling response. […] Response to Ligand rechallenge. After the washout-periods shown in panel a, the cells were rechallenged with the same ligand (1.0 nM) for 60 min and cAMP accumulation was assessed. […] P values indicate comparison by Student’s t test to pre-vehicle treatment: Data are means ± SEM from four separate experiments each in duplicate (b) or quadruplicate (a).\nThe cells were then rinsed twice with CIDB and incubated in CIDB for 90 min (washout phase); then rinsed again and incubated in CIDB/luciferin for an additional 10 min, and then treated with vehicle or rechallenged with the same ligand (1.0 nM) and incubations continued for a final 60-min (ligand re-challenge phase); luminescence was monitored at 2 min-intervals during each phase of incubation."}, "PTH1R-WT [7]": {"molecular_target": "T2, PTH1R-WT", "experiment": "cAMP time course with ligand and after ligand washout (duration), Gs22a cells", "type": "cell-based", "settings": "1 nM, 90 min washout; all PTH1R variants", "experimental": "Data are means (±SEM) of five (a), four (b, c, e) or three (d) separate experiments.\nas §8\nBasal and ligand-stimulated cAMP signaling was assessed via the glosensor cAMP reporter in Gs22a cells transiently transfected to express either the WT or a mutant hPTH1R in white 96-well plates at room temperature. […] The plate was then placed into a PerkinElmer Envision plate reader and luminescence, as counts per second (cps), was measured at 2-min intervals for 15 min, during which time luciferin uptake occurred and luminescence reached a near steady-state baseline level. The plate was then removed from the plate reader, CIDB alone (vehicle) or containing a test ligand at varying concentrations was added, and luminescence was again measured at 2 min intervals for an additional 30–60 min. […]"}, "PTH1R-R485X [8]": {"molecular_target": "T5, PTH1R-R485X", "type": "binding", "settings": "% of maximum SB at PTHR1-WT; four experiments", "experimental": "Bar heights indicate the means ± SEM of three individual experiments represented by the data points. […] Data are means (±SEM) of three (a) or four experiments.\n(§9) Binding was assessed on confluent monolayers of transiently transfected intact Gs22a cells in 96-well plates. Binding reactions contained HB and 20,000–30,000 cpm/well of radioligand. […] The mixtures were then removed and the cells were rinsed twice with HB and lysed with 5 N NaOH and the lysates were counted for gamma irradiation in a gamma counter. […] After incubation for 2 h at 4 °C, the mixtures were removed, the cells were rinsed twice with HB, lysed with 5N NaOH, and the lysates were counted for gamma irradiation.\nThe fit values of max i mum SB, as r adi oac t i v e c ount s per mi nut e (cpm), with non-specif ic binding (1, 529±418"}, "PTH1R-WT [9]": {"molecular_target": "T2, PTH1R-WT", "experiment": "Competition binding vs 125I-LA-PTH*, intact Gs22a cells", "settings": "% of maximum SB at PTHR1-WT; four experiments", "from_the_text": "(§1) Supplemental Table 4. Competition Binding Data.\n(§2) Ligand-binding properties of PTH1R variants\n(§3) Suppl ement al Tabl e 4. Radi ol i gand Bi n d i n g Dat a. […]\n(§4) as compet i t or. […] The fit values of […]\n(§5) Dat a ar e means (±SEM) of f our exper i ment s; p val ues ar e St udent ’s T t est compar i sons t o"}, "PTH1R-E35K [10]": {"molecular_target": "T1, PTH1R-E35K", "experiment": "Competition binding vs 125I-LA-PTH*, intact Gs22a cells", "settings": "four experiments", "from_the_text": "as §1, §2, §3, §4, §5"}, "PTH1R-H223R [11]": {"molecular_target": "T3, PTH1R-H223R", "experiment": "Competition binding vs 125I-LA-PTH*, intact Gs22a cells", "settings": "% of maximum SB at PTHR1-WT; four experiments", "from_the_text": "as §1, §2, §3, §4, §5"}, "PTH1R-Y134S [12]": {"molecular_target": "T4, PTH1R-Y134S", "experiment": "Competition binding vs 125I-LA-PTH*, intact Gs22a cells", "settings": "% of maximum SB at PTHR1-WT; four experiments", "from_the_text": "as §1, §2, §3, §4, §5"}, "PTH1R-R485X [13]": {"test_system": "PTH1R-R485X", "experimental": "as §9"}, "PTH1R-H223R [14]": {"molecular_target": "T3, PTH1R-H223R", "experiment": "Total binding of 125I-PTHrP(1-36), intact Gs22a cells", "experimental": "as §9"}, "PTH1R-Y134S [15]": {"molecular_target": "T4, PTH1R-Y134S", "experiment": "Total binding of 125I-PTHrP(1-36), intact Gs22a cells", "experimental": "as §9"}, "PTH1R-E35K [16]": {"molecular_target": "T1, PTH1R-E35K", "experiment": "Total binding of 125I-PTHrP(1-36), intact Gs22a cells", "experimental": "as §9"}, "PTH1R-R485X [17]": {"test_system": "PTH1R-R485X", "settings": "30 nM TMR ligand (unlabeled: 10 nM), 30 min", "description": "(§6) Images are representative of three independent experiments.\nData are representative of three independent experiments (a-d); or means ± SEM of three or four independent experiments (e, f). Bar heights in graphs of panels b and d indicate the means ± SEM of counts from the five cells shown by the individual data points. Scale bars in a and c indicate 10 μm.\nLigand-induced recruitment of β-arrestin2^YFP was assessed in GBR-24 cells, which are HEK293/glosensor (Gs22A)-derived cells stably expressing β-arrestin2^YFP [42]. The cells in six-well plates were transiently transfected with plasmid DNA encoding PTH1R-WT or mutant derivative, and 24 hours later seeded onto glass coverslips in 6-well plates. […] In some experiments, the cells were imaged by confocal microscopy using a Leica DMi8 inverted Microscope at ×400 magnification, and the images were processed using Leica Application Suite X (LAS X) software. Regions of interest were digitally expanded 3-5X to improve views.\nQuantification of β-arrestin2^YFP clusters was performed using ImageJ software (vers. 1.53)[67]. The color images were converted to 8 bit and then 16 bit gray-scale, and the threshold was adjusted on a cell-by-cell basis to show distinct particles (interpreted as clusters of β-arrestin2^YFP in intracellular vesicles); threshold values ranged from ~ 20-60. The free-hand tool was used to define the area analyzed for each cell, and the Analyze Particle tool was used to obtain the number of particles, the total area, and the mean gray scale (intensity) of each particle for each cell."}, "PTH1R-WT [18]": {"molecular_target": "T2, PTH1R-WT", "experiment": "Fluorescence microscopy of ligand internalization and β-arrestin2YFP recruitment, GBR-24 cells, ImageJ", "type": "cell-based", "settings": "30 nM TMR ligand (unlabeled: 10 nM), 30 min", "from_the_text": "as §6\n(§7) Scale bars in a and c indicate 10 μm."}, "PTH1R-E35K [19]": {"molecular_target": "T1, PTH1R-E35K", "experiment": "Fluorescence microscopy of ligand internalization and β-arrestin2YFP recruitment, GBR-24 cells, ImageJ", "type": "cell-based", "settings": "30 nM TMR ligand (unlabeled: 10 nM), 30 min", "from_the_text": "as §6, §7"}, "PTH1R-Y134S [20]": {"molecular_target": "T4, PTH1R-Y134S", "experiment": "Fluorescence microscopy of ligand internalization and β-arrestin2YFP recruitment, GBR-24 cells, ImageJ", "type": "cell-based", "settings": "30 nM TMR ligand (unlabeled: 10 nM), 30 min", "from_the_text": "as §6, §7"}}, "note": "Where two headings read alike, the source gives them in different places."}
{"molecule": "CC[C@H](C)[C@H](NC(=O)[C@H](CCC(=O)O)NC(=O)[C@H](CO)NC(=O)[C@@H](NC(=O)[C@@H](N)CO)C(C)C)C(=O)N[C@@H](CCC(N)=O)C(=O)N[C@@H](CC(C)C)C(=O)N[C@@H](CCSC)C(=O)N[C@@H](Cc1c[nH]cn1)C(=O)N[C@@H](CC(N)=O)C(=O)N[C@@H](CC(C)C)C(=O)NCC(=O)N[C@@H](CCCCN)C(=O)N[C@@H](Cc1c[nH]cn1)C(=O)N[C@@H](CC(C)C)C(=O)N[C@@H](CC(N)=O)C(=O)N[C@@H](CO)C(=O)N[C@@H](CCSC)C(=O)N[C@@H](CCC(=O)O)C(=O)N[C@@H](CCCNC(=N)N)C(=O)N[C@H](C(=O)N[C@@H](CCC(=O)O)C(=O)N[C@@H](Cc1c[nH]c2ccccc12)C(=O)N[C@@H](CC(C)C)C(=O)N[C@@H](CCCNC(=N)N)C(=O)N[C@@H](CCCCN)C(=O)N[C@@H](CCCCN)C(=O)N[C@@H](CC(C)C)C(=O)N[C@@H](CCC(N)=O)C(=O)N[C@@H](CC(=O)O)C(=O)N[C@H](C(=O)N[C@@H](Cc1c[nH]cn1)C(=O)N[C@@H](CC(N)=O)C(=O)N[C@@H](Cc1ccccc1)C(N)=O)C(C)C)C(C)C", "note": "[PTH(1-34)]", "values": [{"measurement": "Emax", "setting": "PTH1R-E35K [1]", "value": "106 ± 5", "unit": "%"}, {"measurement": "Emax", "setting": "PTH1R-WT [2]", "value": 100, "unit": "%"}, {"measurement": "Emax", "setting": "PTH1R-H223R [3]", "value": "48 ± 6", "unit": "%"}, {"measurement": "Emax", "setting": "PTH1R-Y134S [4]", "value": "96 ± 4", "unit": "%"}, {"measurement": "Emax", "setting": "PTH1R-R485X [5]; read-out: Emax of that attained on PTH1R-WT", "value": "~80", "unit": "%"}, {"measurement": "Emax", "setting": "PTH1R-R485X [5]; read-out: cAMP Emax", "value": "81 ± 10", "unit": "%"}]}
{"molecule": "AVAEIQL MH QR AKWIQD AR R R AFL H KL IAEIH TAEI.OH [LA-PTH, agonist analog]", "values": [{"measurement": "response upon ligand rechallenge, in words", "setting": "PTH1R-R485X [6]", "value": "significantly blunted"}, {"measurement": "residual cAMP signaling at end of washout, in words", "setting": "PTH1R-WT [7]", "value": "elevated for all PTH1R variants"}]}
{"molecule": "AVAEIQLnLHQRAKWIQDARRRAFLHKLIAEIHTAEY.NH2 [125I-LA-PTH*, radioligand prepared by chloramine T oxidation with 125I-Na]", "values": [{"measurement": "maximum specific binding (SB) of radioligand", "setting": "PTH1R-R485X [8]", "value": "107 ± 14", "unit": "%"}, {"measurement": "maximum specific binding (SB) of radioligand", "setting": "PTH1R-WT [9]", "value": "100 ± 0", "unit": "%"}, {"measurement": "maximum specific binding (SB) of radioligand", "setting": "PTH1R-E35K [10]; % of maximum SB at PTHR1-WT", "value": "89 ± 11", "unit": "%"}, {"measurement": "fit maximum SB of radioligand", "setting": "PTH1R-E35K [10]; non-specific binding subtracted", "value": "5,179±936 cpm"}, {"measurement": "maximum specific binding (SB) of radioligand", "setting": "PTH1R-H223R [11]", "value": "114 ± 22", "unit": "%"}, {"measurement": "maximum specific binding (SB) of radioligand", "setting": "PTH1R-Y134S [12]", "value": "93 ± 14", "unit": "%"}]}
{"molecule": "AVSEH QL L H D KGKSIQD L R R R FFL H H L IAEIH TAEY.N H 2 [125I-PTHrP(1-36), radioligand prepared by chloramine T oxidation with 125I-Na]", "values": [{"measurement": "total binding vs PTH1R-WT, in words", "setting": "PTH1R-R485X [13]", "value": "comparable to that on PTH1R-WT"}, {"measurement": "total binding vs PTH1R-WT, in words", "setting": "PTH1R-H223R [14]", "value": "comparable to that on PTH1R-WT"}, {"measurement": "reduction of total binding vs PTH1R-WT", "setting": "PTH1R-Y134S [15]", "value": "~ 50%"}, {"measurement": "reduction of total binding vs PTH1R-WT", "setting": "PTH1R-E35K [16]", "value": "~ 50%"}]}
{"molecule": "AVSEH QL L H D KGrKSIQD L R R R FFL H H L IAEIH TAEI.N H 2 [PTHrP(1-36)^TMR, tetramethyl rhodamine attached to the epsilon amino function of lysine-13]", "values": [{"measurement": "co-clustering of β-arrestin2YFP with ligand in endosomes, in words", "setting": "PTH1R-R485X [17]", "value": "no co-clustering with β-arrestin2^YFP"}, {"measurement": "co-clustering of β-arrestin2YFP with ligand in endosomes, in words", "setting": "PTH1R-WT [18]", "value": "robust co-clustering of the ligand in endosomes with β-arrestin2^YFP"}, {"measurement": "co-clustering of β-arrestin2YFP with ligand in endosomes, in words", "setting": "PTH1R-E35K [19]", "value": "no co-clustering with β-arrestin2^YFP"}, {"measurement": "co-clustering of β-arrestin2YFP with ligand in endosomes, in words", "setting": "PTH1R-Y134S [20]", "value": "no co-clustering with β-arrestin2^YFP"}]}
